The source of these data is patent US12173089B2, “Inhibition of pulmonary fibrosis with nutlin-3A and peptides” (BOARD OF REGENTS, THE UNIVERSITY OF TEXAS SYSTEM, priority 2013, dated 2024).

The test system of assay [1] is FL-fibroblasts. The experiment in a line: Treatment of FL-fibroblasts with nutlin-3a or CSP-4 (findings stated in the summary). Format: cell-based. As to conditions: for miR-34a expression / production of ECM / uPAR expression: FL-fibroblasts.
A further assay deals with BLM-treated mice. The experiment in a line: Ki-67 immunohistochemistry of lung sections of BLM-treated mice. Format: in vivo. As to conditions: IV treatment 14 d after BLM, sections seven days later. The protocol:
FIGS. 12A-12C. CSP-4 or nutlin-3a (NTL) inhibits proliferation of FL-fibroblasts. Mice were exposed to BLM for 14 d to induce significant lung fibrosis or to saline (fibrosis controls). 14 d later, mice exposed to BLM were treated with CSP-4 or CP, or nutlin-3a (see FIGS. 10A-10D/11A-11D). (FIG. 12A): Lung sections (d 21 after BLM injury) were subjected to immunohistochemistry (IHC) for Ki-67 to assess proliferation. One representative example is shown (n=9). Fibroblasts were isolated from the lungs of mice exposed to saline, BLM or BLM+nutlin-3a (as described in FIG. 11A) were tested for the changes in expression of col-I, p53 and downstream uPA and PAI-1 proteins by Western blotting (FIG. 12B):, and mRNA by quantitative RT-PCR (FIG. 12C).
Mice exposed to BLM 14 days earlier were treated with CSP-4 or its control (CP) or Nutlin-3a IV (as in Examples IX and X). Seven days later lung sections were obtained and subjected to IHC for Ki-67 to assess cell proliferation (see FIG. 12A). […] Fibroblasts isolated from the lungs of these animals (as described in Example X) were tested for the changes in expression of col-I, p53 and downstream uPA and PAI-1 proteins by Western blotting, and mRNA by quantitative RT-PCR (see FIGS. 12B-12C).

In a further assay the test system is FL(IPF)-fibroblasts. The experiment in a line: Immunoblot of FL-fibroblast lysates for Col-I, PAI-1, p53 and uPA after exposure to nutlin-3a or CSP-4. As to conditions: nutlin-3a 10 μM, CSP-4 10 nM, 48 hrs. It counts as cell-based, human. The protocol:
FIGS. 8A-8C. Role of p53-fibrinolytic system cross-talk in nutlin-3a (NTL) or CSP-4-mediated inhibition of col-I expression in FL(IPF)-fibroblasts. (FIG. 8A) FL-fibroblasts were exposed to PBS, nutlin-3a (10 uM), CSP-4 (10 nM) or control peptide (CP) for 48 h. The cell lysates were immunoblotted for the expression of Col-I, PAI-1, p53, uPA and β-actin. (FIG. 8B) FL-fibroblasts cultured in 12 well plates in DMEM media were exposed to vehicle (PBS) or nutlin-3a, CSP-4 or CP. After 3 d, cells were detached and counted. (FIG. 8C) FL-fibroblasts were transduced with empty adenovirus vector alone (Ad-EV) or Ad-vector expressing p53 (Ad-p53), PAI-1 (Ad-PAI-1) or caveolin-1 (Ad-Cav-1). After 48 h, cell lysates were immunoblotted for Col-I, p53, PAI-1, uPA and β-actin.
FL-fibroblasts were exposed to PBS (control), nutlin-3a (10 μM), CSP-4 (10 nM) or CP for 48 hrs. Lysates were immunoblotted for the expression of Col-I, PAI-1, p53, and uPA. Cultured FL- were exposed to vehicle (PBS) or nutlin-3a, CSP-4 or CP and counted to assess proliferation. […] The process involves induction of p53 and PAI-1 expression, and concurrent inhibition of uPA.
For orientation: A western blot detects proteins with antibodies after separation by electrophoresis.

In assay [2] the test system is fibrotic lung tissue explants. In words: Ex vivo treatment of fibrotic lung tissue explants of BLM mice, col-I and α-SMA by Western blotting. It counts as cell-based. To be noted: CSP-4 10 nM, nutlin-3a 10 μM, 72 h. The protocol: FIG. 13. Inhibition of BLM-induced pulmonary fibrosis by ex vivo treatment of WT mice lung tissues with CSP-4 or nutlin-3a (NTL). Mice were exposed to intranasal BLM for 21 d to induce pulmonary fibrosis. These mice (n=3) were sacrificed, lungs were excised, chopped into small pieces and placed in culture dishes with DMEM medium containing 10% fetal bovine serum. The tissue samples were later treated with CSP-4 (10 nM), control peptide (CP) and nutlin-3a (TL) (10 μM) for 72 h. Conditioned medium and tissue lysates were prepared and analyzed for changes in col-I, a-SMA and β-actin by Western blotting.
Mice were exposed to intranasal BLM for 21 d to induce pulmonary fibrosis, sacrificed, and their lungs excised and chopped into small pieces and placed into culture medium. These tissue samples were thereafter treated with 10 nM CSP-4 peptide, control peptide (CP) or nutlin-3a for 72 h. Conditioned medium and tissue lysates were and analyzed for changes in col-I and α-SMA by Western blotting. […] The present inventors' results provided herein and in recent reports (e.g., Bhandary et al, 2012, 2013, supra), strongly support the conception that p53-mediated downstream changes in uPA and PAI-1 regulates viability of FL-fibroblasts.

The test system of the next assay is LPS-induced ALI. As to conditions: mice; cited from earlier work.
Assay [3] deals with LPS-stimulated neutrophils and macrophages. As to conditions: cited from earlier work.
In assay [4] the test system is FL-fibroblasts. The experiment in a line: Deletional analysis of CSP: peptide fragments tested on FL-fibroblasts for changes in p53, uPA, PAI-1 and col-I. It counts as cell-based, human. The protocol: FIGS. 6A-6D. CSP (CSP4) augments p53 expression via induction of miR-34a in FL(IPF)-fibroblasts. (FIG. 6A) NL- and FL-fibroblasts (n=3) were treated with PBS, CSP-4 (CSP) or control peptide (CP). RNA was analyzed for miR-34a by real-time PCR. (FIG. 6B) FL-fibroblasts were treated with PBS or CSP or CP with or without miR-34a antisense (miR-34a-AS) or pre-miR-34a or control miRNA (Ctr-miR). Conditioned media (CM) were immunoblotted for PAI-1 and lysates (CL) for p53 and β-actin. (FIG. 6C) FL-fibroblasts were treated with PBS or CSP or CP in the presence or absence of miR-34a-AS, pre-miR-34a or Ctr-miR. RNA was analyzed for changes in miR-34a by real-time PCR. (FIG. 6D) A series of overlapping deletions were made in CSP and these peptides were used to treat FL-fibroblasts with. The peptide sequences were CSP (SEQ ID NO:2), CSP-2: DGIWKAS (SEQ ID NO:12), CSP-3: KYWFYR (SEQ ID NO:13), CSP-4 (SEQ ID NO:1), and CP (SEQ ID NO:5). Changes in p53, uPA, PAI-1 and col-I were later assessed to identify the minimum amino acids required for the CSP effects.
A series of overlapping deletions were made in CSP and these peptide fragments were tested on FL-fibroblasts for changes in p53, uPA, PAI-1 and col-I (FIG. 6D).

In a further assay the test system is ATII cell. As to conditions: BLM- or cigarette smoke-induced; cited from earlier work.

In the case of `COc1ccc(C2=NC(c3ccc(Cl)cc3)C(c3ccc(Cl)cc3)N2C(=O)N2CCNC(=O)C2)c(OC(C)C)c1` (stereo not shown) [nutlin-3a, 4-2-4,5-dihydro-1H-imidazole-1-piperazin-2-one], in the assay with FL-fibroblasts [1], the miR-34a expression result was “restore”, the “production of ECM” value is “inhibits” and the uPAR expression entry is “inhibition”. The “apoptosis of fibrotic fibroblasts” value in the assay with FL-fibroblasts [1] (fibroblasts from lungs of patients with IPF and of mice with BLM-induced pulmonary fibrosis) is “results in apoptosis”. In addition, in the assay on BLM-treated mice, the “staining for ki-67 antigens in lung sections” value is on record as “significantly reduced”. In addition, in the assay on FL(IPF)-fibroblasts, the PAI-1 expression result is reported as “induction”, the col-I expression result is “inhibited”, the p53 expression result is listed as “induction” and the uPA expression result was “inhibition”. Further, in assay [2], the “fibrosis ex vivo (changes in col-I and α-SMA)” value was “inhibited”. Also, the “severity of LPS-induced ALI” value in the assay with LPS-induced ALI was “reduced”. In assay [3], the “NF-κB DNA-binding activity” value is “attenuated” and the “production of proinflammatory cytokines” value is “attenuated”.
With FTTFTVT [CSP-4], in the assay on FL-fibroblasts [1], the miR-34a expression entry is on record as “restore”, the “production of ECM” value is given as “inhibits” and the uPAR expression result was “inhibition”. The “staining for ki-67 antigens in lung sections” value with BLM-treated mice is recorded as “significantly reduced”. Besides, in the assay with FL(IPF)-fibroblasts, the PAI-1 expression entry is listed as “induction”, the col-I expression entry was “inhibited”, the p53 expression result was “induction” and the uPA expression result is listed as “inhibition”. The “fibrosis ex vivo (changes in col-I and α-SMA)” value in assay [2] is “inhibited”. Also, in the assay with FL-fibroblasts [4], the “activity in deletional analysis of the CSP 20mer (changes in p53, uPA, PAI-1 and col-I)” value was “had the activity of the full length peptide”. In the assay with ATII cell, the ATII cell apoptosis entry is given as “inhibited” and the “ATII cell p53 expression” value was “inhibited”.
